# Values quoted from earlier work in patent publication US20170326180A1, “Demineralized Bone Matrix Material having Allogenic Sphingosine-1-Phosphate” (DePuy Synthes Products, Inc., priority 2016, published 2017).
# Test system: mesenchymal stem cells
# Conditions: solution having 0.1 and 1 uM C1P; reported by Kim
substance,measurement,value
ceramide-1-phosphate [C1P],chemotactic activity for mesenchymal stem cells,chemotactic activity
